Columns and labels:
[1] = Body weight change in OVA allergic airway model; format: in vivo, BALB/cJ female mice; details: OVA+AKBA mice, 100 mg/kg AKBA by gavage, beginning to end of experiment; mean±SD
Excerpt: Eight-week-old BALB/cJ female mice were purchased from the Jackson Laboratory (Bar Harbor, ME, US) and housed in plastic cages with corncob bedding at the University of Connecticut Health (Farmington, CT.). Animal rooms maintained a 12-h light/dark cycle and were pathogen free. Mice were fed a 18% protein rodent diet (18.6% protein, 6.2% fat, 44.2% carbohydrate, 3.5% soluble fiber, 14.7% total fiber, 5.3% ash) purchased from Envigo (Indianapolis, IN, US) and supplied autoclaved water. Allergic airway phenotype was induced by using an ovalbumin (OVA, hen egg) sensitization and challenge model as previously described with modifications [Beigelman, A. et al. Azithromycin attenuates airway inflammation in a noninfectious mouse model of allergic asthma. Chest 136, 498-506 (2009)]. Briefly (FIG. 1), two groups of mice (OVA control and OVA+AKBA) were sensitized with intraperitoneal ovalbumin plus alum on days 0 and 7, challenged for 3 days (day 14 to day 17) via nebulized OVA at 1% in PBS for 30 mins, and harvested 48 hr after final challenge. Supplementation groups (OVA+AKBA) were given 100 mg/kg of water soluble AKBA (pH 7) (PLT Health Solutions, Morristown, NJ, US) in autoclaved mouse water, via gavage, every other day for 10 days and then every day for the remainder of the experiment (9 days). OVA control and naïve mouse continued to receive normal autoclaved mouse water. […]

[2] = tested on: BAL leukocytes and eosinophils; experiment: BAL fluid total and differential cell counts in OVA allergic airway model; format: in vivo, BALB/cJ female mice; details: 100 mg/kg AKBA
[3] = tested on: IL-5, IL-4, IL-13, IL-10 in BAL fluid; experiment: BAL fluid cytokine markers, multiplex flow-cytometry based assay; format: in vivo, BALB/cJ female mice; details: OVA+AKBA mice, 100 mg/kg AKBA
Excerpt: Allergic airway phenotype was induced by using an ovalbumin (OVA, hen egg) sensitization and challenge model as previously described with modifications [Beigelman, A. et al. Azithromycin attenuates airway inflammation in a noninfectious mouse model of allergic asthma. Chest 136, 498-506 (2009)]. Briefly (FIG. 1), two groups of mice (OVA control and OVA+AKBA) were sensitized with intraperitoneal ovalbumin plus alum on days 0 and 7, challenged for 3 days (day 14 to day 17) via nebulized OVA at 1% in PBS for 30 mins, and harvested 48 hr after final challenge. Supplementation groups (OVA+AKBA) were given 100 mg/kg of water soluble AKBA (pH 7) (PLT Health Solutions, Morristown, NJ, US) in autoclaved mouse water, via gavage, every other day for 10 days and then every day for the remainder of the experiment (9 days). OVA control and naïve mouse continued to receive normal autoclaved mouse water. Mice were weighted at the beginning and end of the experiment. Experiments involving AKBA were conducted twice, with the first group containing 5 mice per group and the second containing 15 mice per group (5 per group for naive). Experiment procedures were identical, and results were pooled for n=20 (n=5 for naive). Animal protocol 102063-0522 was approved by the University of Connecticut Health IACUC board. Experiments were repeated, as stated above, with oral gavages of B. pseudolongum culture in place of AKBA supplementation. Groups were designated as OVA control (n=10), OVA+B. pseudolongum (n=10) and naïve (n=5). OVA+B. pseudolongum groups were given 10^8 CFU B. pseudolongum in culture medium via gavage, every other day for 10 days and then every day for the remainder of the experiment (9 days). Multiple inflammatory mediators were analyzed in the cell-free supernatant of BAL fluid using a multiplex flow-cytometry based assay according to manufacturer's recommendations (BioLegend, San Diego, CA, US). Volume of cell free fluid was concentrated using a 50K centrifugal filter spun at 3000 g for 10-15 minutes. Samples were run on a ZE5 Cell Analyzer (Bio-Rad, Hercules, CA, US) and sample processing was conducting using software provided from the kit's manufacturer (BioLegend, San Diego, CA, US). Serum specific ovalbumin IgE levels was detected by using an ELISA kit with a sensitivity of 3.8 ng/mL per manufacturer's protocol (Cayman Chemical Company, Ann Arbor, MI, US).

OVA-specific IgE = experiment: Serum OVA-specific IgE, anti-OVA ELISA; format: in vivo, BALB/cJ female mice; details: OVA+AKBA mice, 100 mg/kg AKBA; at sacrifice; p=0.3223 vs OVA control
[4] = tested on: gut microbiome (Bifidobacterium); details: healthy mice; cited from earlier work

SMILES: CC(=O)O[C@@H]1CC[C@@]2(C)[C@@H](CC[C@]3(C)[C@@H]2C(=O)C=C2[C@@H]4[C@@H](C)[C@H](C)CC[C@]4(C)CC[C@]23C)[C@@]1(C)C(=O)O [AKBA, 3-O-acetyl-11-keto-b-boswellic acid]
- total average weight change, % of starting weight [1]: −2.32±4.19%
- BAL total leukocyte counts lower versus OVA control group ([2]; Mann-Whitney p=0.0002): 46.69%
- BAL total leukocyte counts higher than naïve control ([2]; Mann-Whitney p=0.0212): 60.38%
- percent eosinophil in BAL ([2]; OVA+AKBA mice): 31.4%
- absolute number of eosinophils in BAL ([2]; OVA+AKBA mice, mean±SD): 17317.95±5552.67 eosinophil/mL
- IL-10 in BAL fluid ([3]; not significant vs OVA control): 19.77 ± 12.19 ng/mL
- IL-13 in BAL fluid ([3]; not significant vs OVA control): 4.15 ± 3.15 ng/mL
- IL-5 in BAL fluid ([3]; p=0.0079 vs OVA control): 31.39 ± 17.71 ng/mL
- IL-4 in BAL fluid ([3]; p=0.0229 vs OVA control): 9.30 ± 6.67 ng/mL
- serum OVA-specific IgE (OVA-specific IgE): 1275.98 ± 503.22 ng/mL
- relative abundances of Bifidobacterium [4]: increases

Source: patent US12702689B2, “Anti-inflammatory compositions, and uses thereof” (P.L. THOMAS & CO., INC., priority 2022, dated 2026)
